Like-named read-outs stand apart in the source and are kept apart here.
Assays:
[1] = molecular target: human recombinant BACE1 (Homo sapiens (Human), UniProt P56817); assay: In vitro enzymatic BACE1 FRET assay; assay type: biochemical; details: read-out: IC50 IP (μM) BACE1 enzyme
Procedure, shortened: (§1)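 FRET cleavage assay using Ni-NTA-purified recombinant protease and 50 nM quenched peptide substrate, 1 h. Stopped by neutralising with Tris; fluorescence at 488/590 nm.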

[2] = molecular target: human recombinant BACE2 (Homo sapiens (Human), UniProt Q9Y5Z0); assay: In vitro enzymatic BACE2 FRET assay; assay type: biochemical; details: read-out: IC50 IP (μM) BACE2 enzyme
Procedure, shortened: as §1

[3] = system: Aβ40 in conditioned medium of cells stably expressing Amyloid Precursor Protein (APP); assay: In vitro BACE-1 cell-based assay (Aβ40 sandwich ELISA); details: read-out: IC50 IP (μM) BACE1 cell
Procedure, shortened: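 APP-stable cells, pre-cultured 24 h at 37° C in DMEM/10% FBS, were treated 24 h with compound in a 10-point series starting at 100 μM or 10 μM (0.1% DMSO final). Secreted Aβ40 in conditioned medium was measured by pAb40/biotin-6E10 sandwich ELISA with Europium time-resolved fluorescence; IC50 from percent inhibition versus concentration.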

[4] = molecular target: Recombinant Cat D (Homo sapiens (Human), UniProt P07339); assay: In vitro enzymatic Cathepsin D (Cat D) FRET assay; assay type: biochemical; details: read-out: IC50 IP (μM) CatD
Procedure, shortened: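 Human Cat D expressed in CHO cells was incubated for one hour in 0.05 M citrate pH 3.5, 5 mM CHAPS, 10% DMSO final, with 20 nM quenched FRET peptide substrate. Reactions were stopped with Tris buffer raising pH to neutrality. Cleavage was read as fluorescence at excitation 500 nm, emission 580 nm.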

Chain of human recombinant BACE2 (Q9Y5Z0 63-518): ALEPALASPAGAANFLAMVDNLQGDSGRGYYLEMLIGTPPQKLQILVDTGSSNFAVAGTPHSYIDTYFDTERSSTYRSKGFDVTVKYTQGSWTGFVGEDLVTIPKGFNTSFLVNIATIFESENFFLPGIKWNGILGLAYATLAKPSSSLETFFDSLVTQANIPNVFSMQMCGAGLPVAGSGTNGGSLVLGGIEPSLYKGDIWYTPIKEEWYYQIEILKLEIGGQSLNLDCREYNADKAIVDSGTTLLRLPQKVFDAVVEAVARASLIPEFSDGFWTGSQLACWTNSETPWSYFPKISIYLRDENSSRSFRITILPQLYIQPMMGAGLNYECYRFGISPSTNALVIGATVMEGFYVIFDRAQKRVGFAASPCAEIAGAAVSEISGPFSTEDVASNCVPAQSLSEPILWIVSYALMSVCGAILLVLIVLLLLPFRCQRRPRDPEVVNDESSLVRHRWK
Chain of Recombinant Cat D (P07339 65-412): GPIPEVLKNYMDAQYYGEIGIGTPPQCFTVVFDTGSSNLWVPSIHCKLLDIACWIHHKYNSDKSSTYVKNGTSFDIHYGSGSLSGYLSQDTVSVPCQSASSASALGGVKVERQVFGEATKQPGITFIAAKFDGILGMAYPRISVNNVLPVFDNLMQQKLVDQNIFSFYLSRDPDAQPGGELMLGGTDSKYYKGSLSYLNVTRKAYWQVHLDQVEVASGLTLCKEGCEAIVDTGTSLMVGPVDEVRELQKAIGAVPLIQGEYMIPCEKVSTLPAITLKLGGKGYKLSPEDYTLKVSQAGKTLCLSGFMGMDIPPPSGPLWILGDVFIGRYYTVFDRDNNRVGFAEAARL
Chain of human recombinant BACE1 (P56817 46-501): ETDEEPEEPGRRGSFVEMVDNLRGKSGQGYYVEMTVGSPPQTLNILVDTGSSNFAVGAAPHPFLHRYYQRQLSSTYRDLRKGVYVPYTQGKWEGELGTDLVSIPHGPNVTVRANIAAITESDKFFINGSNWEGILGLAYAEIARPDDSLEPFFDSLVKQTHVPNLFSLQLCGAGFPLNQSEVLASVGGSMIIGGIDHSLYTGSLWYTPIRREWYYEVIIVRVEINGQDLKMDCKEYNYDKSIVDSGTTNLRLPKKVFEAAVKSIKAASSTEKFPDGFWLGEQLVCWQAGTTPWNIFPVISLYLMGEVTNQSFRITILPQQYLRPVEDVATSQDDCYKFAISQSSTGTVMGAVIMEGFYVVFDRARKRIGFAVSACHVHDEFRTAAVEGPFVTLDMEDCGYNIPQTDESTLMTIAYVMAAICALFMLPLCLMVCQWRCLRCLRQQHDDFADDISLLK

| SMILES | IC50 [1] [nM] | IC50 [2] [µM] | IC50 [3] [µM] | IC50 [4] [µM] | IC50 ([1]; BACE1 FRET enzyme assay) [nM] | IC50 ([2]; BACE2 FRET enzyme assay) [µM] | IC50 ([3]; BACE1 cell-based assay) [µM] | IC50 ([4]; Cathepsin D FRET enzyme assay) [µM] |
| --- | --- | --- | --- | --- | --- | --- | --- | --- |
| N#Cc1cnc2c(Nc3cc(F)c(F)c([C@@]4(CF)N=C(N)S[C@@]5(CO)C[C@H]54)c3)nccc2c1 [Example 48, 8-((3-((1S,5S,6S)-3-amino-5-(fluoromethyl)-1-(hydroxymethyl)-2-thia-4-azabicyclo[4.1.0]hept-3-en-5-yl)-4,5-fluorophenyl)amino)-7-naphthyridine-3-carbonitrile] | – | – | – | – | 3.57 | 0.00323 | 0.0149 | > 400 |
| COC[C@]12C[C@H]1[C@@](C)(c1cc(NC(=O)c3cnc(OCc4nccs4)cn3)cc(F)c1F)N=C(N)S2 [Example 1034, N-(3-((1S,5S,6S)-3-amino-1-(methoxymethyl)-5-methyl-2-thia-4-azabicyclo[4.1.0]hept-3-en-5-yl)-4,5-difluorophenyl)-5-(1,3-thiazol-2-ylmethoxy)-2-pyrazinecarboxamide] | 1.4 | 0.0118 | 0.0109 | 1400 | – | – | – | – |
| C[C@]1(c2cc(Nc3nccc4nc(OCc5ncco5)cnc34)ccc2F)N=C(N)S[C@@]2(C(F)F)C[C@@H]12 [Example 817, N-(3-((1S,5S,6S)-3-amino-1-(difluoromethyl)-5-methyl-2-thia-4-azabicyclo[4.1.0]hept-3-en-5-yl)-4-fluorophenyl)-2-(1,3-oxazol-2-ylmethoxy)pyrido[3,4-b]pyrazin-5-amine] | 0.706 | 0.0319 | 0.00171 | 124 | – | – | – | – |
| C[C@]1(c2cc(Nc3nccc4nc(OCc5ncco5)cnc34)ccc2F)N=C(N)S[C@@]2(CF)C[C@H]21 [Example 825, N-(3-((1S,5S,6S)-3-amino-1-(fluoromethyl)-5-methyl-2-thia-4-azabicyclo[4.1.0]hept-3-en-5-yl)-4-fluorophenyl)-2-(1,3-oxazol-2-ylmethoxy)pyrido[3,4-b]pyrazin-5-amine] | 3.57 | 0.0542 | 0.00111 | 526 | – | – | – | – |
| COC[C@H](C)Oc1cnc(C(=O)Nc2ccc(F)c([C@@]3(C)N=C(N)S[C@@]4(C(F)F)C[C@@H]34)c2)cn1 [Example 971, N-(3-((1S,5S,6S)-3-amino-1-(difluoromethyl)-5-methyl-2-thia-4-azabicyclo[4.1.0]hept-3-en-5-yl)-4-fluorophenyl)-5-((1S)-2-methoxy-1-methylethoxy)-2-pyrazinecarboxamide] | 5.22 | 0.38 | 0.0185 | 611 | – | – | – | – |
| C#CCOc1cnc(C(=O)Nc2ccc(F)c([C@@]3(CF)N=C(N)S[C@@]4(c5c[nH]nn5)C[C@@H]34)c2)cn1 [Example 959, N-(3-((1S,5S,6S)-3-amino-5-(fluoromethyl)-1-(1H-1,2,3-triazol-4-yl)-2-thia-4-azabicyclo[4.1.0]hept-3-en-5-yl)-4-fluorophenyl)-5-(2-propyn-1-yloxy)-2-pyrazinecarboxamide] | 0.0901 | < 0.00203 | 0.00152 | 44.1 | – | – | – | – |
| C[C@]1(c2cc(NC(=O)c3cnc(OCC(F)(F)F)cn3)ccc2F)N=C(N)S[C@@]2(C(=O)NCCF)C[C@H]21 [Example 1040, (1S,5S,6S)-3-amino-5-(2-fluoro-5-(5-(2,2,2-trifluoroethoxy)pyrazine-2-carboxamido)phenyl)-N-(2-fluoroethyl)-5-methyl-2-thia-4-azabicyclo[4.1.0]hept-3-ene-1-carboxamide] | 0.426 | 0.0555 | 0.00284 | 212 | – | – | – | – |
| COC[C@]12C[C@H]1[C@@](C)(c1cc(Nc3ncnc4cc(C#N)cnc34)cnc1F)N=C(N)S2 [Example 846, 4-((5-((1S,5S,6S)-3-amino-1-(methoxymethyl)-5-methyl-2-thia-4-azabicyclo[4.1.0]hept-3-en-5-yl)-6-fluoro-3-pyridinyl)amino)pyrido[3,2-d]pyrimidine-7-carbonitrile] | 28.2 | 0.0494 | 0.0111 | > 400 | – | – | – | – |
| C#CCOc1cnc(C(=O)Nc2cc(F)c(F)c([C@@]3(CF)N=C(N)S[C@@]4(CO)C[C@H]43)c2)cn1 [Example 83, N-(3-((1S,5S,6S)-3-amino-5-(fluoromethyl)-1-(hydroxymethyl)-2-thia-4-azabicyclo[4.1.0]hept-3-en-5-yl)-4,5-difluorophenyl)-5-(2-propyn-1-yloxy)-2-pyrazinecarboxamide] | – | – | – | – | 0.46 | 0.0138 | 0.00092 | 105 |
| C[C@]1(c2cc(Nc3nccc4nc(OCCCF)cnc34)cc(F)c2F)N=C(N)S[C@@]2(C(F)F)C[C@@H]12 [Example 871, N-(3-((1S,5S,6S)-3-amino-1-(difluoromethyl)-5-methyl-2-thia-4-azabicyclo[4.1.0]hept-3-en-5-yl)-4,5-difluorophenyl)-2-(3-fluoropropoxy)pyrido[3,4-b]pyrazin-5-amine] | 18.3 | 0.517 | 1.17 | 352 | – | – | – | – |

Further compounds by falling IC50 [1], results first:

| IC50 [1] [nM] | IC50 [2] [µM] | IC50 [3] [µM] | IC50 [4] [µM] | IC50 ([1]; BACE1 FRET enzyme assay) [nM] | IC50 ([2]; BACE2 FRET enzyme assay) [µM] | IC50 ([3]; BACE1 cell-based assay) [µM] | IC50 ([4]; Cathepsin D FRET enzyme assay) [µM] | SMILES |
| --- | --- | --- | --- | --- | --- | --- | --- | --- |
| 18.8 | 0.00815 | 0.00799 | 1430 | – | – | – | – | C[C@]1(c2cc(Nc3nccc4cc(C#N)cnc34)cnc2F)N=C(N)S[C@H]2C[C@H]21 [Example 641, 8-((5-((1S,5S,6S)-3-amino-5-methyl-2-thia-4-azabicyclo[4.1.0]hept-3-en-5-yl)-6-fluoro-3-pyridinyl)amino)-1,7-naphthyridine-3-carbonitrile] |
| 5.58 | 0.0026 | 0.0134 | 557 | – | – | – | – | C/C(=C\[C@]12C[C@H]1[C@@](CF)(c1cc(NC(=O)c3ccc(Cl)cn3)ccc1F)N=C(N)S2)C(=O)N1CCOCC1 [Example 778, N-(3-((1R,5S,6S)-3-amino-5-(fluoromethyl)-1-((E)-2-methyl-3-morpholino-3-oxoprop-1-en-1-yl)-2-thia-4-azabicyclo[4.1.0]hept-3-en-5-yl)-4-fluorophenyl)-5-chloropicolinamide] |
| 5.4 | 0.18 | 0.0035 | > 400 | – | – | – | – | COC[C@]12C[C@H]1[C@@](C)(c1cc(NC(=O)c3cnc(OCC4(C)CC4)cn3)ccc1F)N=C(N)S2 [Example 1049, N-(3-((1S,5S,6S)-3-amino-1-(methoxymethyl)-5-methyl-2-thia-4-azabicyclo[4.1.0]hept-3-en-5-yl)-4-fluorophenyl)-5-((1-methylcyclopropyl)methoxy)-2-pyrazinecarboxamide] |
| 0.465 | 0.00908 | 0.00353 | 741 | – | – | – | – | C#C[C@H](C)Oc1cnc(C(=O)Nc2cc(F)c(F)c([C@@]3(C)N=C(N)S[C@@]4(C#N)C[C@H]43)c2)cn1 [Example 1011, N-(3-((1S,5S,6S)-3-amino-1-cyano-5-methyl-2-thia-4-azabicyclo[4.1.0]hept-3-en-5-yl)-4,5-difluorophenyl)-5-(((1S)-1-methyl-2-propyn-1-yl)oxy)-2-pyrazinecarboxamide] |
| 0.382 | 0.015 | 0.00075 | 349 | – | – | – | – | C[C@]1(c2cc(NC(=O)c3cnc(OCc4ncco4)cn3)ccc2F)N=C(N)S[C@@]2(C(=O)NC3CC3)C[C@H]21 [Example 799, (1S,5S,6S)-3-amino-N-cyclopropyl-5-(2-fluoro-5-(((5-(1,3-oxazol-2-ylmethoxy)-2-pyrazinyl)carbonyl)amino)phenyl)-5-methyl-2-thia-4-azabicyclo[4.1.0]hept-3-ene-1-carboxamide] |

— US20160046618A1, “Cyclopropyl Fused Thiazin-2-Amine Compounds as Beta-Secretase Inhibitors and Methods of Use” (AMGEN INC., priority 2014, published 2016)
